In US20230096028A1, “BICYCLIC HETEROCYCLYL COMPOUNDS AND USES THEREOF” (Revolution Medicines, Inc., priority 2019, published 2023):

Key:
[1] = system: PC-9 cells (EGFR Ex19Del); experiment: Potency Assay: pERK (SOS1 pERK IC50 Assay, AlphaLISA SureFire Ultra p-ERK1/2); type: cell-based; conditions: Homo sapiens; PC-9 cells (EGFR Ex19Del), 1 hour incubation, AlphaLISA p-ERK1/2; read-out: SOS1 pERK IC50
Outline: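 PC-9 (EGFR Ex19Del) cells plated overnight, then treated 1 h at 37° C. with 10-point 3-fold dilutions (top 10 μM final) in duplicate. Lysate pERK1/2 measured by AlphaLISA SureFire Ultra; IC50 from 4-parameter sigmoidal fit.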

[2] = target: T1, SOS1 catalytic domain (residues 564-1049) (Homo sapiens, UniProt Q07889); experiment: Potency Assay: binding affinity to SOS1 using Surface Plasmon Resonance (SPR); set-up: SOS1 catalytic domain (residues 564-1049) immobilized on a sensor chip; conditions: immobilized SOS1 catalytic domain (residues 564-1049), read-out: SOS1 SPR Equilibrium Kd
T1 sequence (Q07889 564-1049): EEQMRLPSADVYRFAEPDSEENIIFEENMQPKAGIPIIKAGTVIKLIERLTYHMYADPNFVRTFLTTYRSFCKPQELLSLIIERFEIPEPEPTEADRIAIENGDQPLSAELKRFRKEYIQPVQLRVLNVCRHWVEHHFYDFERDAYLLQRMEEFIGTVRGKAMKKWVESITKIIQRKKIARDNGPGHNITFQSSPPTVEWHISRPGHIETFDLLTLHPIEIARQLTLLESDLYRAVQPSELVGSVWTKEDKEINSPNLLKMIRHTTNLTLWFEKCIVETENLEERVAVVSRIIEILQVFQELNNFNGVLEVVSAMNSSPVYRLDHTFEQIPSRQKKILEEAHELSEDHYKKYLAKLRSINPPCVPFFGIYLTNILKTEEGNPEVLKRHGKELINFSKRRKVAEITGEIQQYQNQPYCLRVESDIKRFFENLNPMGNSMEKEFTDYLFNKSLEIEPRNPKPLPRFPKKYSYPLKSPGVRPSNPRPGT
Outline: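 Avi-tagged SOS1 catalytic domain captured on streptavidin chip (~6000 RU) in 0.01 M HEPES, 0.15 M NaCl, 0.05% P20. Compound dilution series flowed at 50 μL/min for association, then buffer for dissociation, with double reference subtraction. Kd derived from end-of-association binding response plotted against concentration.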

[3] = target: T1, SOS1 catalytic domain (residues 564-1049); experiment: Mode of Action Assay: inhibition of SOS1 nucleotide exchange activity (SOS1 TR-FRET IC50 Assay)

SMILES	IC50 [1] [nM]	Kd [2] [nM]	IC50 [3] [nM]
C[C@@H](Nc1nc(CO)nc2c1CN(C(=O)N1CCOCC1)C2)c1cc(N)cc(C(F)(F)F)c1 [Example 129, (4-{[(1R)-1-[3-amino-5-(trifluoromethyl)-phenyl]ethyl]amino}-6-(morpholine-4-carbonyl)-5H,6H,7H-pyrrolo[3,4-d]pyrimidin-2-yl)methanol]	< 1000	< 400	< 1000
C[C@@H](Nc1nc(Br)nc2c1CN(C(=O)N1CCOCC1)C2)c1cc(N)cc(C(F)(F)F)c1 [Example 131, N-[(1R)-1-[3-amino-5-(trifluoro-methyl)phenyl]ethyl]-2-bromo-6-(morpholine-4-carbonyl)-5H,6H,7H-pyrrolo[3,4-d]pyrimidin-4-amine]	< 1000	< 400	< 1000
C[C@@H](Nc1nc(I)nc2c1CN(C(=O)N1CCOCC1)C2)c1cc(N)cc(C(F)(F)F)c1 [Example 134, N-[(1R)-1-[3-amino-5-(trifluoromethyl)phenyl]ethyl]-2-iodo-6-(morpholine-4-carbonyl)-5H,6H,7H-pyrrolo[3,4-d]pyrimidin-4-amine]	< 1000	< 400	< 1000
Nc1cc(CNc2nc(Cl)nc3c2CN(C(=O)N2CCOCC2)C3)cc(C(F)(F)F)c1 [Example 135, N-{[3-amino-5-(trifluoromethyl)phenyl]methyl}-2-chloro-6-(morpholine-4-carbonyl)-5H,6H,7H-pyrrolo[3,4-d]pyrimidin-4-amine]	> 1000	> 400	> 1000
C[C@@H](Nc1nc(Cl)nc2c1CN(C(=O)N1CCNc3ncccc31)C2)c1cc(N)cc(C(F)(F)F)c1 [Example 138]	< 1000	< 400	< 1000
COc1ccc2c(c1)OCCN2C(=O)N1Cc2nc(Cl)nc(N[C@H](C)c3cc(N)cc(C(F)(F)F)c3)c2C1 [Example 140]	< 1000	< 400	> 1000

Other lines, results leading:

IC50 [1] [nM]	Kd [2] [nM]	IC50 [3] [nM]	SMILES
< 1000	> 400	> 1000	C[C@@H](Nc1nc(OC(F)(F)F)nc2c1CN(C(=O)N1CCOCC1)C2)c1cc(N)cc(C(F)(F)F)c1 [Example 126, N-[(1R)-1-[3-amino-5-(trifluoro-methyl)phenyl]ethyl]-6-(morpholine-4-carbonyl)-2-(trifluoro-methoxy)-5H,6H,7H-pyrrolo-[3,4-d]pyrimidin-4-amine]
< 1000	< 400	< 1000	CCc1nc2c(c(N[C@H](C)c3cc(N)cc(C(F)(F)F)c3)n1)CN(C(=O)N1CCOCC1)C2 [Example 128, N-[(1R)-1-[3-amino-5-(trifluoromethyl)phenyl]ethyl]-2-ethyl-6-(morpholine-4-carbonyl)-5H,6H,7H-pyrrolo[3,4-d]pyrimidin-4-amine]
> 1000	< 400	< 1000	C[C@@H](Nc1nc(CN)nc2c1CN(C(=O)N1CCOCC1)C2)c1cc(N)cc(C(F)(F)F)c1 [Example 130, N-[(1R)-1-[3-amino-5-(trifluoromethyl)phenyl]ethyl]-2-(aminomethyl)-6-(morpholine-4-carbonyl)-5H,6H,7H-pyrrolo[3,4-d]pyrimidin-4-amine]
< 1000	< 400	< 1000	C[C@@H](Nc1nc(C(F)F)nc2c1CN(C(=O)N1CCOCC1)C2)c1cc(N)cc(C(F)(F)F)c1 [Example 132, N-[(1R)-1-[3-amino-5-(trifluoromethyl)phenyl]ethyl]-2-(difluoromethyl)-6-(morpholine-4-carbonyl)-5H,6H,7H-pyrrolo[3,4-d]pyrimidin-4-amine]
< 1000	< 400	< 1000	C[C@@H](Nc1nc(Cl)nc2c1CN(C(=O)N1CCOCC1)C2)c1cccc(C(F)(F)F)c1 [Example 137, 2-chloro-6-(morpholine-4-carbonyl)-N-[(1R)-1-[3-(trifluoromethyl)phenyl]ethyl]-5H,6H,7H-pyrrolo[3,4-d]pyrimidin-4-amine]
< 1000	< 400	< 1000	C[C@@H](Nc1nc(Cl)nc2c1CN(C(=O)N1CCc3ccncc31)C2)c1cc(N)cc(C(F)(F)F)c1 [Example 142]
